# Literature values as cited in US6955812B2, “Health food and preparation having an anti-obesity effect” (Mitsubishi Heavy Industries, Ltd., priority 2001, dated 2005).
# Tested on: HepG2 cells
# Settings: cultured HepG2 cells of a human liver model; from Japanese patent application No. 2000-202404
compound,measurement,value
NC(CO)CS(=O)(=O)O [D-cysteinolic acid],effect on neutral fat (triglyceride),greatly suppressing
